One assay deals with T1, BerA (Burkholderia cenocepacia, UniProt B4EIC5).
T1 construct: gene BCAM1349; berA in pGEX-6P-2, expressed in E. coli Rosetta (DE3) pLysS as GST fusion, eluted with glutathione
Nature of the assay: SPR, steady-state affinity fit. It counts as binding. The following applies: labelled compound; biotinylated c-di-GMP immobilised on chip, protein injected; PBS buffer pH 7.4; known binder as positive control. A general note: SPR reads the build-up and loss of mass on a sensor chip optically.

Another assay addresses T2, BerB (Burkholderia cenocepacia, UniProt B4EHY3).
T2 construct: gene BCAM1342; berB in pGEX-6P-2, expressed in E. coli Rosetta (DE3) pLysS as GST fusion, eluted with glutathione
Nature of the assay: SPR, steady-state affinity fit. It counts as binding. As to conditions: labelled compound; biotinylated c-di-GMP immobilised on chip, protein injected; HEPES buffer pH 7.4, 150 mmol/L NaCl, 0.05% Tween. The source says:
SPR, steady-state affinity fit on BerB | BerB was able to bind to the biotinylated c‐di‐GMP in a concentration‐dependent manner

T2 sequence (B4EHY3 entry or part of it): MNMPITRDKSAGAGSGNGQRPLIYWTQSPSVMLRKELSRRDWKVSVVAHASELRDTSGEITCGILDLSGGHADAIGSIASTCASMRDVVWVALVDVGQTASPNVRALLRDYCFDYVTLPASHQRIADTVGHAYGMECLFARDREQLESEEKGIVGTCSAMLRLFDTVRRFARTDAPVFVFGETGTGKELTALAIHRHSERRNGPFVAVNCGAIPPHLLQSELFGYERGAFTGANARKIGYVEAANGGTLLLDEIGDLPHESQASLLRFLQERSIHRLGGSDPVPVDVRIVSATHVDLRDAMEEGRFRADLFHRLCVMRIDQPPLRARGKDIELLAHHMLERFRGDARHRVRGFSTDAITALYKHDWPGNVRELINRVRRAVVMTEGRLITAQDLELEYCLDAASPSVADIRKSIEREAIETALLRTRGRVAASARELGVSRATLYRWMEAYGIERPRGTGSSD
T1 sequence (B4EIC5 entry or part of it): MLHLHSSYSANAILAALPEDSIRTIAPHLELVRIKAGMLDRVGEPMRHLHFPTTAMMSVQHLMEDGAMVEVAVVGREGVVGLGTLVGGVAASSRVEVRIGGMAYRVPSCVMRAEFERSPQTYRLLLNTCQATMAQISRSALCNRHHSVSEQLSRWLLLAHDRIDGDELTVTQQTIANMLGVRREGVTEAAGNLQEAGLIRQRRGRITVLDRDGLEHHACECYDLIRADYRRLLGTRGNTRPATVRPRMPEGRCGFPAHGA

The Kd is the constant that tells how readily two partners part at equilibrium. Read a high Kd as weaker binding. In the case of biotinylated c-di-GMP, the Kd on BerA and at BerB was roughly 3000 nM each time.
